According to patent EP0495091B1 (Metabasis Therapeutics Inc., priority 1990, dated 1992):
Where “and” joins values, the source holds several entries; their conditions need not be identical. Equal entries are not always repeated. Where two headings read alike, the source gives them in different places.

Assays:
Isolated rat hearts = assay: Improved functional recovery in isolated hearts (Langendorff, post-ischemic LVDP); settings: 30 min ischemia, 30 min reperfusion, number in brackets = hearts
Method: Isolated rat hearts were cannulated via the ascending aorta and attached to a perfusion apparatus according to the method of Langendorff. The hearts were perfused at a constant pressure of 100 cm of H2O with a modified Krebs-Henseleit buffer (pH 7.4) at 37°C. As a measure of heart function, left ventricular developed pressure (LVDP) was continuously monitored. Following equilibration of the hearts for a period of 30 min., the hearts were subjected to reduced flow i.e. ischemia, by reducing the pressure to 10 cm of H2O for 30 min. Flow was then restored by returning the pressure to its original level (100 cm of H2O) for a further 30 min.

[1] = test system: longitudinal muscle from the guinea pig ileum; assay: Inhibition of stimulated contraction in isolated ileum
Method: Parallel platinum electrodes were used to deliver electrical current at 1 minute intervals at a voltage adequate to induce contraction of 90% of maximal.

[2] = test system: coronary endothelial cells; assay: Inhibition of adenosine utilization in cell culture; type: cell-based; settings: for inhibition at 5 µM / inhibition at 50 µM: Endothelial cell, read-out: Inhibition of Adenosine Utilization (%); for Inhibition of Adenosine Utilization (%): 1 µM [3H] adenosine, 15 minutes
Method: Inhibition of adenosine utilization was determined by measuring the concentration of extracellular adenosine by scintillation counting following separation by thin layer chromatography (TLC).

[3] = molecular target: T1, NBTI-specific adenosine transport site (Homo sapiens, UniProt Q99808); assay: [3H]-NBTI binding assay; settings: 50% displacement of bound [3H]-NBTI (0.5 nM); neuronal membrane protein, 30 minutes, pH 7.4, room temperature; read-out: ED50 (the source's name)
T1 construct: incubated for 30 minutes with 0.5 mg neuronal membrane protein together with 0.5 nM [^3H]-NBTI; from tissue
T1 sequence (Q99808 1-456): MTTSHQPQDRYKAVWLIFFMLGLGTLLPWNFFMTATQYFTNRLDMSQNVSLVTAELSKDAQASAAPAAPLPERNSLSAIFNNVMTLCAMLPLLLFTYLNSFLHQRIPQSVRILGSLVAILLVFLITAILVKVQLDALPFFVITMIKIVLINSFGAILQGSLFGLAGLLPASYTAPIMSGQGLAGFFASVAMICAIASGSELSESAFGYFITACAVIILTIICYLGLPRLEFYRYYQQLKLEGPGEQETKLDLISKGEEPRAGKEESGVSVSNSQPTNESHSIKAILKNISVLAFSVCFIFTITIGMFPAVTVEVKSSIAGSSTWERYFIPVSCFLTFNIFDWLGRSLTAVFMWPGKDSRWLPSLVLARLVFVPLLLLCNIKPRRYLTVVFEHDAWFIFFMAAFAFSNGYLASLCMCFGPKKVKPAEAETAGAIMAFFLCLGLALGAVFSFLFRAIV
Method: Increasing concentrations of the test compounds were incubated for 30 minutes with 0.5 mg neuronal membrane protein together with 0.5 nM [^3H]-NBTI in a Tris buffer (pH 7.4) at room temperature. The assays were quenched and membranes collected by rapid filtration. Filters were then solubilized and radioactivity determined by scintillation counting.

[4] = Oral bioavailability and half-life in fasted adult beagles; settings: dog, in vivo
Method: Heparinized blood and urine were collected at selected intervals over 24 hours. Each sample was chilled, centrifuged at 4°C and frozen prior to HPLC analysis.

[5] = test system: platelet aggregation in human whole blood; assay: Inhibition of platelet aggregation in human whole blood; type: cell-based; settings: 10 minutes at 37°C, 10 µM adenosine added 5 minutes before, ADP (6-25 µM) induced, impedance technique
Method: Whole blood was drawn from healthy donors and collected in 0.1 vol. of sodium citrate to prevent coagulation. Platelet aggregation was measured by the impedance technique using a Whole Blood Aggregometer.

Anesthetized male dogs = type: in vivo; settings: n = 6
Method: Anesthetized male dogs were instrumented to measure regional myocardial wall thickening during right atrial pacing in the presence of a stenosis of the left anterior descending artery (Young & Mullane Am. J. Physiol. in press (1991)). In Table XIA, the effects on wall thickening and arterial pressure of six repeated episodes of pacing in animals treated with a continuous IV infusion of 50 µg/kg/min of the test compound administered post-pace #1 are compared with saline-treated control animals. […]

[6] = Cavia porcellus, concentration which inhibited electrically stimulated contraction by 50%, read-out: IC50
[7] = concentration which inhibited electrically stimulated contraction by 50%, read-out: IC50

Structure (SMILES)	IC50 ([1]; Cavia porcellus) [µM]	inhibition at 5 µM [2] [%]	inhibition at 50 µM [2] [%]	EC50 [3] [µM]	IC50 ([5]; Homo sapiens, Platelet) [µM]	further results
Nc1c(C(=O)SCc2ccc([N+](=O)[O-])cc2)ncn1[C@@H]1O[C@H](CO)[C@@H](O)[C@H]1O	10	17 ± 3	19 ± 2	0.5	–	Function Recovery % Baseline LVDP (% of hearts) (Isolated rat hearts; 1 µM in perfusion buffer): 74.0±2.8 (6) %
NC[C@H]1O[C@@H](n2cnc(C(N)=O)c2N)[C@H](O)[C@@H]1O [Compound No. 21, 5'-Amino-5'-deoxy-AICA-riboside]	–	–	–	–	–	Function Recovery % Baseline LVDP (% of hearts) (Isolated rat hearts; 1 µM in perfusion buffer): 77.0±4.4 (10) %; Function Recovery % Baseline LVDP (% of hearts) (Isolated rat hearts; 5 µM in perfusion buffer): 81.0±3.2 (8) %; IC50 [1, 6]: 800 µM; bioavailability ([4]; po, fasted adult beagles, 10 mg/kg IV bolus and 20 mg/kg solution via stomach tube, read-out: Absolute Oral Bioavailability %): 71%; half-life ([4]; fasted adult beagles): 1.3 h
Nc1c(C(=O)NCc2ccc([N+](=O)[O-])cc2)ncn1[C@@H]1O[C@H](CO)[C@@H](O)[C@H]1O [Compound No. 23, 5-Amino-1-β-D-ribofuranosyl-imidazole-4-N-[(4-nitrophenyl)methyl]carboxamide]	3	27 ± 4	63 ± 2	3	38	Function Recovery % Baseline LVDP (% of hearts) (Isolated rat hearts; 1 µM in perfusion buffer): 79.0±2.3 (6) %
Nc1c(C(=O)NCc2ccc(Cl)cc2Cl)ncn1[C@@H]1O[C@H](CO)[C@@H](O)[C@H]1O [Compound No. 25, 5-amino-1-β-D-ribofuranosylimidazole-4-N-[(2,4-dichlorophenyl)methyl]carboxamide]	20	21 ± 1	56 ± 2	72	–	Function Recovery % Baseline LVDP (% of hearts) (Isolated rat hearts; 5 µM in perfusion buffer, listed as 25 (1-360)): 86.8±2.3 (6) % and 72.4±1.6 (6) %
NC(=O)c1ncn([C@@H]2O[C@H](CCl)[C@@H](O)[C@H]2O)c1N [Compound No. 26, 5-amino-1-(5-chloro-5-deoxy-β-D-ribofuranosyl) imidazole-4-carboxamide]	–	–	–	–	–	Function Recovery % Baseline LVDP (% of hearts) (Isolated rat hearts; 5 µM in perfusion buffer): 70.7±4.1 (8) %; IC50 [1, 7]: 200 µM
NC(=O)c1nc(S)n([C@@H]2O[C@H](CO)[C@@H](O)[C@H]2O)c1N [Compound No. 27, 5-amino-2-thio-1-β-D-ribofuranosyl imidazole-4-carboxamide]	500	–	–	344	950	Function Recovery % Baseline LVDP (% of hearts) (Isolated rat hearts; 5 µM in perfusion buffer): 74.6±3.7 (7) %
Nc1c(C(=O)NCc2cccc([N+](=O)[O-])c2)ncn1[C@@H]1O[C@H](CO)[C@@H](O)[C@H]1O [Compound No. 28, 5-amino-1-β-D-ribofuranosylimidazole-4-N-[(3-nitrophenyl)methyl]carboxamide]	–	17 ± 3	47 ± 2	15	180	–
Nc1c(C(=O)NCc2ccc(Cl)cc2)ncn1[C@@H]1O[C@H](CO)[C@@H](O)[C@H]1O [Compound No. 29, 5-amino-1-β-D-ribofuranosylimidazole-4-N-[(4-Chlorophenyl)methyl]carboxamide]	60	41 ± 11	67 ± 8	100	90	Function Recovery % Baseline LVDP (% of hearts) (Isolated rat hearts; 1 µM in perfusion buffer): 76.7±2.9 (7) %
Cc1ccc(CNC(=O)c2ncn([C@@H]3O[C@H](CO)[C@@H](O)[C@H]3O)c2N)cc1 [Compound No. 30, 5-amino-1-β-D-ribofuranosylimidazole-4-N-[(4-methylphenyl)methyl]carboxamide]	20	21 ± 1	49 ± 4	225	–	–
CCCCO[C@@H]1[C@H](O)[C@@H](CO)O[C@H]1n1cnc(C(N)=O)c1N [Compound No. 32, 5-amino-1-(2-O-n-butyl-β-D-ribofuranosyl) imidazole-4-carboxamide]	–	–	–	–	350	IC50 [1, 6]: 100 µM
COc1ccc(CNC(=O)c2ncn([C@@H]3O[C@H](CO)[C@@H](O)[C@H]3O)c2N)cc1 [Compound No. 39, 5-Amino-1-β-D-ribofuranosyl-imidazole-4-N-(p-methoxybenzyl)carboxamide]	500	7 ± 4	29 ± 1	600	–	–
NC(=O)c1nc(Sc2ccccc2)n([C@@H]2O[C@H](CO)[C@@H](O)[C@H]2O)c1N [Compound No. 43, 5-Amino-2-thiophenyl-1-β-D-ribofuranosylmidazole-4-carboxamide]	200	–	–	71	620	–
Cl.NC[C@H]1O[C@@H](n2cnc(C(=O)NCc3ccc(Cl)cc3)c2N)[C@H](O)[C@@H]1O [Compound No. 53, 5-Amino-1-(5-amino-5-deoxy-β-D-ribofuranosyl)imidazole-4-N-[(4-chlorophenyl)methyl]carboxamide Hydrochloride]	–	–	–	~100	–	Function Recovery % Baseline LVDP (% of hearts) (Isolated rat hearts; 5 µM in perfusion buffer): 85.6±1.8 (10) %; IC50 [1, 7]: 70 µM; Inhibition of Adenosine Utilization (%) ([2]; 5 µM test compound): 34 ± 4%; Inhibition of Adenosine Utilization (%) ([2]; 50 µM test compound): 58 ± 2%; IC50 [5]: 150 µM; Half Life [4]: 5.61 h; Absolute Oral Bioavailability % ([4]; po): 53 (1-468) 32%; % of NON-ISCHEMIC WALL THICKENING (Anesthetized male dogs; Pace # 1 (infusion started post-pace #1)): 49.5 ± 6.5%; % of NON-ISCHEMIC WALL THICKENING (Anesthetized male dogs; Pace # 2, continuous IV infusion of 50 µg/kg/min): 46.7 ± 7.0%; % of NON-ISCHEMIC WALL THICKENING (Anesthetized male dogs; Pace # 3, continuous IV infusion of 50 µg/kg/min): 54.2 ± 9.4 %; % of NON-ISCHEMIC WALL THICKENING (Anesthetized male dogs; Pace # 4, continuous IV infusion of 50 µg/kg/min): 48.1 ± 7.6 %; % of NON-ISCHEMIC WALL THICKENING (Anesthetized male dogs; Pace # 5, continuous IV infusion of 50 µg/kg/min): 47.5 ± 8.2 %; % of NON-ISCHEMIC WALL THICKENING (Anesthetized male dogs; Pace # 6, continuous IV infusion of 50 µg/kg/min): 42.1 ± 7.0 %
Nc1c(C(=O)NCc2ccc(Br)cc2)ncn1[C@@H]1O[C@H](CO)[C@@H](O)[C@H]1O [Compound No. 56, 5-Amino-1-β-D-ribofuranosyl-imidazole-4-N-[(4-bromophenyl)methyl]carboxamide]	–	55 ± 7	65 ± 9	32	75	–
Nc1c(C(=O)NCCc2ccc([N+](=O)[O-])cc2)ncn1[C@@H]1O[C@H](CO)[C@@H](O)[C@H]1O [Compound No. 59]	–	–	–	2	70	Function Recovery % Baseline LVDP (% of hearts) (Isolated rat hearts; 1 µM in perfusion buffer): 75.8±2.2 (7) %
C[C@H]1O[C@@H](n2cnc(C(=O)NCc3ccc(Cl)cc3)c2N)[C@H](O)[C@@H]1O [Compound No. 61, 5-Amino-1-(5-deoxy-β-D-ribofuranosyl) imidazole-4N-[(4-chlorophenyl)methyl]carboxamide]	–	37 ± 28	72 ± 5	32	171	–
[N-]=[N+]=NC[C@H]1O[C@@H](n2cnc(C(=O)NCc3ccc([N+](=O)[O-])cc3)c2N)[C@H](O)[C@@H]1O [Compound No. 71, 5-Amino-1-(5-azido-5-deoxy-B-D-ribofuranosyl)imidazole-4-N-[(4-nitrophenyl)methyl]carboxamide]	–	–	–	–	–	Inhibition of Adenosine Utilization (%) ([2]; 5 µM test compound): 10 ± 3%; Inhibition of Adenosine Utilization (%) ([2]; 50 µM test compound): 31 ± 11%; IC50 [5]: 40 µM
NC[C@H]1O[C@@H](n2cnc(C(=O)NCc3ccc([N+](=O)[O-])cc3)c2N)[C@H](O)[C@@H]1O [Compound No. 72]	–	–	–	–	–	IC50 [5]: 300 µM
